Experimental data as given in patent US5312816A, “Method of combatting osteoporosis in mammalian subjects, utilizing organic boron compounds” (priority 1993, dated 1994).
Where two headings read alike, the source gives them in different places.

Legend:
Aryl sulphatase [1] = assay: Human osteoporosis fibroblasts aryl sulphatase activity; assay type: cell-based; details: read-out: Aryl Sulphatase IC50; Table X; human osteoporosis fibroblasts
From the text: 3. Aryl sulphatase- p-nitrocatechol sulfate, pH
5. 8 p-nitro-catechol product 510 nm.

[2] = tested on: Prostaglandin cyclooxygenase; assay: Human osteoporosis fibroblasts prostaglandin cyclooxygenase activity; assay type: cell-based; details: read-out: Prostaglandin Cyclooxygense IC50, Table XI, 60 min incubation
5'-lipoxygenase = molecular target: T1, 5'-lipoxygenase (Mus musculus, UniProt P48999); assay: Mouse hepatic 5'-lipoxygenase activity; assay type: biochemical; details: Table VI; mouse hepatic, 60 min incubation; read-out: 5'-lipoxygenase IC50
T1 construct: Cf1 male mouse hepatic 10% homogenates; from tissue; host or cells: CF1 male mouse liver, 10% homogenate
T1 sequence (P48999 1-674): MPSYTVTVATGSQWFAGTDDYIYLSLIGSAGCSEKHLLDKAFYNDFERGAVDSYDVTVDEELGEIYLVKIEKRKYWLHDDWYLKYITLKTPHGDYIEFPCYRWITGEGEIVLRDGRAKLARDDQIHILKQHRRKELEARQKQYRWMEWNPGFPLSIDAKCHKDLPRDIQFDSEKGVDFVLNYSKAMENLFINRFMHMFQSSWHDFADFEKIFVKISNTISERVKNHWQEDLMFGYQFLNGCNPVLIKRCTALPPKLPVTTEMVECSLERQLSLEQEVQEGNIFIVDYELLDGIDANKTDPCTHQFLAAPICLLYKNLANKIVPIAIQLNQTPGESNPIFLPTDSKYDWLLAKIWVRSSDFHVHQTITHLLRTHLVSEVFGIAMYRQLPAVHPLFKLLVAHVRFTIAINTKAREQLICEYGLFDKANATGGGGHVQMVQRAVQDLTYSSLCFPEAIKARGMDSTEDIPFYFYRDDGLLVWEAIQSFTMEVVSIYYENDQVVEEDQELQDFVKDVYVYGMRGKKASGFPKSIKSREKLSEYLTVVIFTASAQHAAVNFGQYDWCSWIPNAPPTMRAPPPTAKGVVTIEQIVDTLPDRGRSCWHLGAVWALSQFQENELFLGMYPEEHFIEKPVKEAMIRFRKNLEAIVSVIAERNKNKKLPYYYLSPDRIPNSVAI
From the text: (§1) 1. Cf1 male mouse hepatic 10% homogenates in 0.25M sucrose+0.001MEDTA,pH 7.2.
5'-lipoxygenase Mylari, B.L., et al, J. Med.

Cf1 male mice [3] = assay: Writhing reflex, 0.6% acetic acid; assay type: in vivo; design: response vs control in vivo: dose or concentration left out as unconfirmed
Acid phosphatase [4] = assay: Human osteoporosis fibroblasts acid phosphatase activity; assay type: cell-based; details: read-out: Acid Phosphatase IC50; Table X; human osteoporosis fibroblasts
From the text: (§2) 1. Acid phosphatase -beta glycerol-3-phosphate, pH 5.0, released IP 720 nm.

Acid phosphatase [5] = assay: Mouse macrophage acid phosphatase activity; assay type: cell-based
[6] = tested on: Prostaglandin cyclooxygenase; assay: Mouse macrophage prostaglandin cyclooxygenase activity; assay type: cell-based
From the text: (§3) 3. Mouse macrophages J774A.1 BALB/c
(§4) Prostaglandin synthetase purified beef seminal vesicle ^3 H arachidonic acid (86.2 Ci/mmol), tlc separation.

Elastase [7] = assay: Mouse macrophage elastase activity; assay type: cell-based
Cathepsin D [8] = molecular target: T2, Cathepsin D (Homo sapiens, UniProt P07339); assay: Human osteoporosis fibroblasts cathepsin D (azo-casein) activity; assay type: cell-based; details: Table X; human osteoporosis fibroblasts, DMEM +10% FCS + P/S; read-out: Cathepsin D IC50
T2 construct: azocasein assay pH 5.0
From the text: Osteoporosis Human Fibroblast-CRL-1140, Be SA1

Trypsin [9] = assay: Mouse macrophage trypsin (BAEE) activity; assay type: cell-based
[10] = molecular target: T3, Porcine Pancreatic Elastase (Sus scrofa, UniProt P00772); assay: Porcine pancreatic elastase activity in vitro; assay type: biochemical; details: Table IX; commercial enzyme preparation
T3 construct: purchased; host or cells: porcine pancreas
From the text: (§5) 2. Elastase- N-succinyl-L-alanyl-L-alanine-p-nitroanilide, pH 8.0, p-nitro anilide 410 nm.

Trypsin [11] = assay: Human osteoporosis fibroblasts trypsin (BAEE) activity; assay type: cell-based; details: read-out: Trypsin BAEE IC50; Table XI; human osteoporosis fibroblasts, 60 min incubation
From the text: 1. Trypsin- N-benzoyl-L-arginine ethyl ester pH 8.0, hydrolytic product 253 nm.

Prostaglandin synthetase = molecular target: T4, Prostaglandin synthetase (Bos taurus, UniProt O62664); assay: Prostaglandin synthetase (cyclooxygenase), purified beef seminal vesicle; assay type: biochemical; details: Table IX; commercial enzyme preparation; read-out: Beef Prostaglandin Cyclooxygenase IC50
T4 construct: Prostaglandin synthetase purified beef seminal vesicle; from tissue
T4 sequence (O62664 25-600): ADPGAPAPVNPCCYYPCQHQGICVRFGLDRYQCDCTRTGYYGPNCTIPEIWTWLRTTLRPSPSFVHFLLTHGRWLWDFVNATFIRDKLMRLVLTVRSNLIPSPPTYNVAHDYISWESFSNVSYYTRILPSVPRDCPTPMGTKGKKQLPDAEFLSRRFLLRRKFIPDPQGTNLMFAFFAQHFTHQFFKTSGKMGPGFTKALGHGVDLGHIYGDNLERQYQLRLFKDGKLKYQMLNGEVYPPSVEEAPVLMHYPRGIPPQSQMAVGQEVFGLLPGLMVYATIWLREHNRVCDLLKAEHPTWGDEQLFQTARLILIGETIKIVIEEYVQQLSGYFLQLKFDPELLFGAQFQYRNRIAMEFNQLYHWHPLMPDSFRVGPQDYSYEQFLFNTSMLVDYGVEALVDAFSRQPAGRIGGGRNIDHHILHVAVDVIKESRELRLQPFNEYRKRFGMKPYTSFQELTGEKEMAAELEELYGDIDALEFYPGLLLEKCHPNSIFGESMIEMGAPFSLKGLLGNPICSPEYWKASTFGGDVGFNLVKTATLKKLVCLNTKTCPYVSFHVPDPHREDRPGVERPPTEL
From the text: as §4

Elastase [12] = assay: Human osteoporosis fibroblasts elastase activity; assay type: cell-based; details: read-out: Elastase IC50; Table XI; human osteoporosis fibroblasts, 60 min incubation
From the text: as §5

Cathepsin D [13] = molecular target: T5, Cathepsin D (Mus musculus, UniProt P18242); assay: Mouse hepatic lysosomal cathepsin D activity; assay type: biochemical
T5 construct: azocasein assay pH 5.0
From the text: as §1
(§6) Lysosomal Enzymes - free and total [triton X-100].
(§7) 2. Acid Cathepsin D -azocasein-pH 5.0, hydrolytic azo-peptide produce 366 nm.
Cathepsin azo casein activity -

Cathepsin [14] = assay: Human leukocyte cathepsin; assay type: cell-based; details: read-out: Cathepsin IC50; Table XII; human leukocytes, 60 min incubation
From the text: 5. Human peripheral leukocytes, RPMI-1788
as §7

Cathepsin [15] = molecular target: T6, Cathepsin (Rattus norvegicus, UniProt P24268); assay: Rat PMNs cathepsin activity; assay type: cell-based; details: pH 5; 5 × 10^-6 M, N=6; read-out: Rat PMNs Cathep.
T6 construct: azocasein assay pH 5.0
From the text: (§8) 2. PMNs-polymorphonuclear neutrophils-rat peritoneal cavity 0.5% oyster glycogen.
as §7

Cf1 male mice [16] = assay: Anti-inflammatory screen, Winter's test, 2% carrageenan hind foot; assay type: in vivo; details: for Anti-inflammatory: Table 1, drugs 8 or 10 mg/kg I.P. 2X, Indomethacin 10 mg/kg
Procedure: Anti-inflammatory Screen- Cf1 - male mice-Winter's Test 2% carrageenan S.C. plantar surface of hind foot, drugs administered @8 or 10 mg/kg I.P. 2X
Winter, C.A., et al, Proc. Soc.

Sprague Dawley Rats = assay: Anti-inflammatory activity in Sprague Dawley rats; assay type: in vivo; details: Table IV; 8 mg/kg I.P.
in vivo = details: mouse, Table 1, N=6
Procedure: Amine borane compounds (0 to 100 mg/kg) were administered to CF1 male mice as a single injection with six mice for each dosage. Mice were weighed daily and the number of deaths was recorded each day for a 14 day period. The LD50 value was determined by the procedure of S.C. Gad and C.S. Weil, "Statistics for Toxicologists" in Principles and Methods of Toxicology, A.W. Hayes, Ed., 2nd Edition, P 435-483 Raven Press, New York 1982.

[17] = tested on: Hepatic oxidative phosphorylation; assay: Hepatic oxidative phosphorylation, Gilson oxygraph; assay type: biochemical, mouse; details: 10^-6 M; 1 µM
From the text: as §1

Cf1 male mice [18] = assay: Writhing reflex, 0.6% acetic acid; assay type: in vivo; details: Table 1; Indomethacin 10 mg/kg
Procedure: Writhing reflex- Cf1 -male mice- 0.6% acetic acid I.P. drugs administered @20 mg/kg/ I.P. 20 min. later - the # of stretches/10 min.
Hendershot, L.C., et al, J.

Sprague Dawley male rats = assay: Chronic adjuvant arthritis screen, Mycobacterium butyricum; assay type: in vivo; details: Table 1; Indomethacin 10 mg/kg
Cathepsin D [19] = molecular target: T5, Cathepsin D; assay: Mouse macrophage cathepsin D activity; assay type: cell-based; details: Table VII; mouse macrophage cultured cells, DMEM +10% FCS +P/S, 60 min incubation; read-out: Cathepsin D IC50
From the text: as §3, §7

cAMP = assay: PMNs cAMP levels, Gilman's radioimmune assay; assay type: cell-based, rat; details: 5 × 10^-6 M, N=6
From the text: as §8
cAMP levels Gilman's radioimmune assay. ^3 H(G)Cyclic-3', 5'-adenosine monophosphate.

Acid phosphatase [20] = assay: Rat PMNs acid phosphatase activity; assay type: cell-based; details: 5 × 10^-6 M, N=6; 5 µM
From the text: as §8, §2

Acid phosphatase [21] = assay: Mouse hepatic lysosomal acid phosphatase activity; assay type: biochemical; details: 5 × 10^-6 M, N=6; 5 µM
From the text: as §1, §6, §2
Acid phosphatase activity -

Aryl sulphatase [22] = assay: Mouse macrophage aryl sulphatase activity; assay type: cell-based; details: Table VII; mouse macrophage cultured cells, 60 min incubation; read-out: Aryl Sulphatase IC50
Calcium = assay: Serum and urine calcium levels in vivo; details: Cf1 male mice, 8 mg/kg/day I.P. 14 days, N=6
Phosphorus = assay: Serum and urine inorganic phosphorus levels in vivo; details: Cf1 male mice, 8 mg/kg/day I.P. 14 days, N=6
Hydroxyproline = assay: Serum and urine hydroxyproline levels in vivo; details: Cf1 male mice, 8 mg/kg/day I.P. 14 days, N=6

T5 sequence (P18242 65-410): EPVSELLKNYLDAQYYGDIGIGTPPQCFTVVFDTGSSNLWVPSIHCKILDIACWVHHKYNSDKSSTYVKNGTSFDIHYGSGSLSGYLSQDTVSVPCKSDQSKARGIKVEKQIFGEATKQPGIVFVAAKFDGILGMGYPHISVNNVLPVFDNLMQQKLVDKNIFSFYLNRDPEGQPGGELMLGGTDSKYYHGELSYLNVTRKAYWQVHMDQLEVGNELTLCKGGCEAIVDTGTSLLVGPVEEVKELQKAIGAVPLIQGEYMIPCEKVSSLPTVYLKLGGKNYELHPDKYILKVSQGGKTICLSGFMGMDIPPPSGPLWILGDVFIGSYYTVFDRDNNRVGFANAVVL
T6 sequence (P24268 65-407): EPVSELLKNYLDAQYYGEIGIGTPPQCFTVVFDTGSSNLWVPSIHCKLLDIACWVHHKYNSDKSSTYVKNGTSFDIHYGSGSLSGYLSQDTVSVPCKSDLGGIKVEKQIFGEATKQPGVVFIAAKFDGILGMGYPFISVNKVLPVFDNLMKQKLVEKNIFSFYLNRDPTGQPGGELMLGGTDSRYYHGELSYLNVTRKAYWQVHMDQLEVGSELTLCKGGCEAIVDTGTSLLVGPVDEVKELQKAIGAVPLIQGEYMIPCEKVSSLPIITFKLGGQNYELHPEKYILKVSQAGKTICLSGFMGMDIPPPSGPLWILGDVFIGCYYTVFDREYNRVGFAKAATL
T3 sequence (P00772 27-266): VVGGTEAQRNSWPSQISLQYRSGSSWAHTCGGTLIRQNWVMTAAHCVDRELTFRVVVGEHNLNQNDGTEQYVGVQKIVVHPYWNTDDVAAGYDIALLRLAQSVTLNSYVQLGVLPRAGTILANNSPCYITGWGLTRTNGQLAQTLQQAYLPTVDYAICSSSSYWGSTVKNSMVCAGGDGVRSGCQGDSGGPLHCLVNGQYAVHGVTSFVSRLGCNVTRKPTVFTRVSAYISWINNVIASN
T2 sequence (P07339 65-412): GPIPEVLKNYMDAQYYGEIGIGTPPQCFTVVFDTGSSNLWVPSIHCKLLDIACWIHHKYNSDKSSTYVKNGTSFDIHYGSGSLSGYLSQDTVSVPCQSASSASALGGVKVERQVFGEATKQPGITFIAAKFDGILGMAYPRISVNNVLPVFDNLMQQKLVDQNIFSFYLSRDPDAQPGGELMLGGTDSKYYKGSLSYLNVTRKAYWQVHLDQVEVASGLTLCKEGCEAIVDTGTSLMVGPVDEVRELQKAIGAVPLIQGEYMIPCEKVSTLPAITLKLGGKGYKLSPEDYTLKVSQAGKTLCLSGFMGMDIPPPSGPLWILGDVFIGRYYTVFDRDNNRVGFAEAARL

SMILES: [BH3-][NH+]1CCOCC1 [Compound 1, Morpholine-borane]
- IC50 (Aryl sulphatase [1]): 8.99 µM
- IC50 [2]: 3.41 µM
- IC50 (5'-lipoxygenase): 66.9 µM
- response vs control in vivo (Cf1 male mice [3]; Mus musculus, ip, read-out: Writhing Reflex Cf1 Mice): 15.2%
- IC50 (Acid phosphatase [4]): 10.3 µM
- IC50 (Acid phosphatase [5]; read-out: Acid Phosphatase IC50; Table VII; mouse macrophage cultured cells, 60 min incubation): 3.18 µM
- IC50 ([6]; read-out: Prostaglandin Cyclooxygenase IC50; Table VIII; mouse macrophages, 60 min incubation): 1.47 µM
- IC50 (Elastase [7]; read-out: Elastase IC50; Table VIII; mouse macrophages, 60 min incubation): 5.94 µM
- IC50 (Cathepsin D [8]): 4.4 µM
- IC50 (Trypsin [9]; read-out: Trypsin BAEE IC50; Table VIII; mouse macrophages, 60 min incubation): 2.39 µM
- IC50 [10]: 14.9 µM
- IC50 (Trypsin [11]): 7.88 µM
- IC50 (Prostaglandin synthetase): 2.36 µM
- IC50 (Elastase [12]): 1.84 µM
- IC50 (Cathepsin D [13]; Table V, mouse hepatic, 60 min incubation, read-out: Cathepsin D IC50): 0.88 µM
- IC50 (Cathepsin [14]): 72.8 µM

SMILES: C[N+](C)(C)[BH2-]C(=O)O [Compound 3, Trimethylamine-carboxyborane]
- activity at 5 µM (Cathepsin [15]): 14%
- Anti-inflammatory (Cf1 male mice [16]): 79 % Control
- Anti-Inflammatory Activity Mice (Cf1 male mice [16]; Table IV, 8 mg/kg I.P.): 58 % Control
- Anti-Inflammatory Activity Sprague Dawley Rats (Sprague Dawley Rats): 59 % Control
- LD50 at 336 h (in vivo): 1800 mg/kg
- Hepatic Oxidative Phosphorylation Succinate State 3 [17]: 63 + 4 % Control
- Hepatic Oxidative Phosphorylation Succinate State 4 [17]: 122 + 14 % Control
- Hepatic Oxidative Phosphorylation alpha-Ketoglutrate State 3 [17]: 70 + 20 % Control
- Hepatic Oxidative Phosphorylation alpha-Ketoglutrate State 4 [17]: 127 + 22 % Control
- Writhing (Cf1 male mice [18]): 29 % Control
- Writhing Reflex Cf1 Mice (Cf1 male mice [3]; Table IV, 8 mg/kg I.P.): 11.5 % Control
- IC50 (Acid phosphatase [5]; Table VII; mouse macrophage cultured cells, 60 min incubation; read-out: Acid Phosphatase IC50): 1.04 µM
- IC50 ([6]; Table VIII; mouse macrophages, 60 min incubation; read-out: Prostaglandin Cyclooxygenase IC50): 2.81 µM
- IC50 (Elastase [7]; Table VIII; mouse macrophages, 60 min incubation; read-out: Elastase IC50): 2.14 µM
- Anti-arthritic (Sprague Dawley male rats): 53 % Control
- IC50 (Cathepsin D [19]): 6.71 µM
- IC50 (Trypsin [9]; Table VIII; mouse macrophages, 60 min incubation; read-out: Trypsin BAEE IC50): 2.78 µM
- PMNs cAMP (cAMP): 99 % Control
- Rat PMNs Acid Phoph. (Acid phosphatase [20]): 50 + 3 % Control
- Mouse Liver Acid Phosph. (Acid phosphatase [21]): 82 + 5 % Control
- activity at 5 µM (Cathepsin D [13]; pH 5, 5 × 10^-6 M, N=6, read-out: Mouse Liver Cathep.): 56%
- IC50 (Aryl sulphatase [22]): 7.42 µM

SMILES: CCCCCCCCCCCCCCCCCC[N+](C)(C)[BH2-]C(=O)O [Compound 6, N,N-Dimethyloctadecylamine-carboxyborane]
- Calcium serum (Calcium): 135.4 % Control
- Calcium urine (Calcium): 64.4 % Control
- Phosphorus serum (Phosphorus): 86.2 % Control
- Phosphorus urine (Phosphorus): 65.4 % Control
- response vs control in vivo at 20 mg/kg (Cf1 male mice [3]; Mus musculus, ip, Table IV): 14.1%
- Hydroxyproline serum (Hydroxyproline): 76.4 % Control
- Hydroxyproline urine (Hydroxyproline): 60.6 % Control
- IC50 [10]: 27.6 µM
- IC50 (Prostaglandin synthetase): 1.92 µM

SMILES: COc1ccc2c(c1)c(CC(=O)O)c(C)n2C(=O)c1ccc(Cl)cc1 [Indomethacin, reference compound]
- activity at 5 µM (Cathepsin [15]): 100%
- Anti-inflammatory (Cf1 male mice [16]): 22 % Control
- LD50 at 336 h (in vivo): 28 mg/kg
- Writhing (Cf1 male mice [18]): 43 % Control
- Anti-arthritic (Sprague Dawley male rats): 27 % Control
- PMNs cAMP (cAMP): 80 % Control
- Rat PMNs Acid Phoph. (Acid phosphatase [20]): 100 + 2 % Control
- Mouse Liver Acid Phosph. (Acid phosphatase [21]): 86 + 4 % Control
- activity at 5 µM (Cathepsin D [13]; pH 5, read-out: Mouse Liver Cathep.): 67%
